Reference: patent US20220169680A1 (priority 2018, published 2022)

system: A549 cells; format: cell-based

Substance | cell entry of rhodamine-labeled polypeptide | cell-penetrating peptide function compared with the parent polypeptide (confocal imaging)
KRGPSTAGVPESMREEYRQEQQN [A/HongKong/97/98(H5N1)-M2-N-M-AH(60-82)] | did not enter the cells | 
KRGPSTEGVPESMREEYREEQQN [Caledonia/20/1999(H1N1)-M2-N-M-AH(60-82)] | did not enter the cells | 
RFFFRRFFRRFRFRFRRR [Jilin-2004(H5N1)-M2-45-62 mut13] |  | stronger than that of the parent Jilin-2004(H5N1)-M2-45-62 polypeptide
RLFFKCAYRRLKYGLKRG [Jilin-2004(H5N1)-M2-45-62 mut51] |  | stronger than that of the parent Jilin-2004(H5N1)-M2-45-62 polypeptide
RLFFKCIYRRLKYGLKRG [A/HongKong/97/98(H5N1)-M2-N-M-AH(45-62)] | could all enter A549 cells | 
RLFFKCIYRRLKYGLKTG [Jilin-2004(H5N1)-M2-45-62 mut61] |  | stronger than that of the parent Jilin-2004(H5N1)-M2-45-62 polypeptide
RLFFKIIYRRLKYGLKRG [Jilin-2004(H5N1)-M2-45-62 mut50] |  | stronger than that of the parent Jilin-2004(H5N1)-M2-45-62 polypeptide
RLFFRRIYRRLKYGLKRG [Jilin-2004(H5N1)-M2-45-62 mut2] |  | stronger than that of the parent Jilin-2004(H5N1)-M2-45-62 polypeptide
RLFFRRIYRRLRYGLKRG [Jilin-2004(H5N1)-M2-45-62 mut3] |  | stronger than that of the parent Jilin-2004(H5N1)-M2-45-62 polypeptide
RLFFRRIYRRLRYRLKRG [Jilin-2004(H5N1)-M2-45-62 mut4] |  | stronger than that of the parent Jilin-2004(H5N1)-M2-45-62 polypeptide
RLFFRRIYRRLRYRLRRG [Jilin-2004(H5N1)-M2-45-62 mut5] |  | stronger than that of the parent Jilin-2004(H5N1)-M2-45-62 polypeptide
RLFFRRIYRRLRYRLRRR [Jilin-2004(H5N1)-M2-45-62 mut6] |  | stronger than that of the parent Jilin-2004(H5N1)-M2-45-62 polypeptide
RLFIKCIYRRLKYGLKRG [Jilin-2004(H5N1)-M2-45-62 mut48] |  | stronger than that of the parent Jilin-2004(H5N1)-M2-45-62 polypeptide
RLFSKSIYR1FKHGLKRG [Caledonia/20/1999(H1N1)-M2-N-M-AH(45-62)] | could all enter A549 cells | 

system: A549 cells; format: cell-based; remark: another data set of the same source

Substance | ability to carry small RNA into cells compared with the transfection reagent RNAiMax group, qPCR | ability to carry small RNA (PGY-sRNA-26) into cells, qPCR
DRFFFKCFFRRFKFGLKRGPST [Jilin-2004(H5N1)-M2-44-65 mut6] | stronger than the transfection reagent RNAiMax group | 
DRFFFKCIFRRLKFGLKRGPST [Jilin-2004(H5N1)-M2-44-65 mut5] | stronger than the transfection reagent RNAiMax group | 
DRFFFKCIYRRLKYGLKRGPST [Jilin-2004(H5N1)-M2-44-65 mut1] | stronger than the transfection reagent RNAiMax group | 
DRFFFKCIYRRLKYGLKRRPST [Jilin-2004(H5N1)-M2-44-65 mut2] | stronger than the transfection reagent RNAiMax group | 
DRFFFKRIFRRLKFRLKRRPST [Jilin-2004(H5N1)-M2-44-65 mut11] | stronger than the transfection reagent RNAiMax group | 
DRKRRKCKYRRKKYGRKR [Jilin-2004(H5N1)-M2-44-61 mut14] | stronger than the transfection reagent RNAiMax group | 
DRLFFICIYRRLKYGLKR [Jilin-2004(H5N1)-M2-44-61 mut6] | stronger than the transfection reagent RNAiMax group | 
DRLFFKCIYRRLKYGLII [Jilin-2004(H5N1)-M2-44-61 mut16] | stronger than the transfection reagent RNAiMax group | 
DRLFFKCIYRRRKRGLKR [Jilin-2004(H5N1)-M2-44-61 mut12] | stronger than the transfection reagent RNAiMax group | 
DRLFFKIIYRRLKYGLKR [Jilin-2004(H5N1)-M2-44-61 mut8] | stronger than the transfection reagent RNAiMax group | 
DRLFFRRIYRRLKYGLKRGPST [Jilin-2004(H5N1)-M2-44-65 mut23] | stronger than the transfection reagent RNAiMax group | 
DRRFFKCIYRRLKYGLKR [Jilin-2004(H5N1)-M2-44-61 mut4] | stronger than the transfection reagent RNAiMax group | 
DRRRRKCRRRRRKYGRKR [Jilin-2004(H5N1)-M2-44-61 mut10] | stronger than the transfection reagent RNAiMax group | 
KRGPSTEGVPESMREEYRQEQQS [Jilin-2004(H5N1)-M2-60-82] |  | Only the polypeptide Jilin-2004(H5N1)-M2-45-62 had the ability to carry small RNA into the cells
MSLLTEVETPTRNGWECRCSDSSD [Jilin-2004(H5N1)-M2-1-24] |  | Only the polypeptide Jilin-2004(H5N1)-M2-45-62 had the ability to carry small RNA into the cells
PLVVAASIIGILHLILWIL [Jilin-2004(H5N1)-M2-25-43] |  | Only the polypeptide Jilin-2004(H5N1)-M2-45-62 had the ability to carry small RNA into the cells

Substance | ability to carry small RNA into cells compared with the transfection reagent RNAiMax group, qPCR | ability to carry small RNA (PGY-sRNA-26) into cells, qPCR
RAFFKCIYRRLKYGLKRG [Jilin-2004(H5N1)-M2-45-62 mut46] | stronger than the transfection reagent RNAiMax group | 
RFFFKCFYRRLKYGLKRG [Jilin-2004(H5N1)-M2-45-62 mut8] | stronger than the transfection reagent RNAiMax group | 
RLFFKCAYRRLKYGLKRG [Jilin-2004(H5N1)-M2-45-62 mut51] | stronger than the transfection reagent RNAiMax group | 
RLFFKCIKRRLKYGLKRG [Jilin-2004(H5N1)-M2-45-62 mut52] | stronger than the transfection reagent RNAiMax group | 
RLFFKCIYRRAKYGLKRG [Jilin-2004(H5N1)-M2-45-62 mut55] | stronger than the transfection reagent RNAiMax group | 
RLFFKCIYRRLKYGAKRG [Jilin-2004(H5N1)-M2-45-62 mut59] | stronger than the transfection reagent RNAiMax group | 
RLFFKCIYRRLKYGLKTG [Jilin-2004(H5N1)-M2-45-62 mut61] | stronger than the transfection reagent RNAiMax group | 
RLFFKCIYRRLTYGLKRG [Jilin-2004(H5N1)-M2-45-62 mut56] | stronger than the transfection reagent RNAiMax group | 
RLFFKCIYSRLKYGLKRG [Jilin-2004(H5N1)-M2-45-62 mut53] | stronger than the transfection reagent RNAiMax group | 
RLFFRCIYRRLKYGLKRG [Jilin-2004(H5N1)-M2-45-62 mut1] | stronger than the transfection reagent RNAiMax group | 
RLFFRRIYRRLRYRLRRG [Jilin-2004(H5N1)-M2-45-62 mut5] | stronger than the transfection reagent RNAiMax group | 
RLFIKCIYRRLKYGLKRG [Jilin-2004(H5N1)-M2-45-62 mut48] | stronger than the transfection reagent RNAiMax group | 
RLIFKCIYRRLKYGLKRG [Jilin-2004(H5N1)-M2-45-62 mut47] | stronger than the transfection reagent RNAiMax group | 
RRFFFKCFFRRFKFGLKRGPST [Jilin-2004(H5N1)-M2-44-65 mut7] | stronger than the transfection reagent RNAiMax group | 
RRLFFKCIYRRLKYGLKR [Jilin-2004(H5N1)-M2-44-61 mut1] | stronger than the transfection reagent RNAiMax group | 
RRLFFKCIYRRLKYGLKRGPST [Jilin-2004(H5N1)-M2-44-65 mut15] | stronger than the transfection reagent RNAiMax group | 

system: A549 cells; format: cell-based; remark: another data set of the same source

Substance | cell-penetrating peptide function compared with the parent polypeptide | cell entry at all time points | cell entry signal / cell entry properties
DRFFFKCFYRRLK [Jilin-2004(H5N1)-M2-44-56 mut9] | enhanced compared to the parent polypeptide |  | 
DRFFFKRIFRRLKYRLKRRPST [Jilin-2004(H5N1)-M2-44-65 mut10] | stronger than that of the parent Jilin-2004(H5N1)-M2-44-65 polypeptide |  | 
DRKRRKCKYRRKKYGRKR [Jilin-2004(H5N1)-M2-44-61 mut14] | stronger than that of the parent Jilin-2004(H5N1)-M2-44-61 polypeptide |  | 
DRLFFKCIYRRLKYGRKR [Jilin-2004(H5N1)-M2-44-61 mut13] | stronger than that of the parent Jilin-2004(H5N1)-M2-44-61 polypeptide |  | 
DRLFFRRIYRRLRYRLRRRPST [Jilin-2004(H5N1)-M2-44-65 mut24] | stronger than that of the parent Jilin-2004(H5N1)-M2-44-65 polypeptide |  | 
ERGLQRRRFVQNALN [NC, reference compound] |  | no entry of polypeptides was observed | 
GPSTEGVPESMREEYRQE [FITC-Jilin-2004(H5N1)-M2-62-79] |  |  | did not show cell entry properties
KYGLKRGPSTEGVPESMR [FITC-Jilin-2004(H5N1)-M2-56-73] |  |  | did not show cell entry properties
LKRGPSTEGVPESMREEY [FITC-Jilin-2004(H5N1)-M2-59-76] |  |  | did not show cell entry properties
MSLLTEVETPTRNGWECRCSDSSD [Jilin-2004(H5N1)-M2-1-24] |  |  | no cell entry signal was detected
PLVVAASIIGILHLILWIL [Jilin-2004(H5N1)-M2-25-43] |  |  | no cell entry signal was detected
RRLKYGLKRGPSTEGVPE [FITC-Jilin-2004(H5N1)-M2-53-70] |  |  | did not show cell entry properties
TEGVPESMREEYRQEQQS [FITC-Jilin-2004(H5N1)-M2-65-82] |  |  | did not show cell entry properties
